Laboratory results: patent US20260125375A1 (Pfizer Inc., priority 2022, published 2026)

Experiments:
C-CBL (46-435) = target: T1, C-CBL (46-435) (Homo sapiens, UniProt P22681); assay: Surface Plasmon Resonance (SPR) assay, binding affinity and kinetics, C-CBL; settings: SPR at 10° C., biotinylated C-CBL (46-435) on streptavidin chip; geometric mean; read-out: C-CBL SPR Kd (nM) GMean
T1 construct: N-terminal biotinylated WT CBL-B (36-427) and C-CBL (46-435) were captured on a streptavidin (SA) coated sensor chip
T1 sequence (P22681 46-435): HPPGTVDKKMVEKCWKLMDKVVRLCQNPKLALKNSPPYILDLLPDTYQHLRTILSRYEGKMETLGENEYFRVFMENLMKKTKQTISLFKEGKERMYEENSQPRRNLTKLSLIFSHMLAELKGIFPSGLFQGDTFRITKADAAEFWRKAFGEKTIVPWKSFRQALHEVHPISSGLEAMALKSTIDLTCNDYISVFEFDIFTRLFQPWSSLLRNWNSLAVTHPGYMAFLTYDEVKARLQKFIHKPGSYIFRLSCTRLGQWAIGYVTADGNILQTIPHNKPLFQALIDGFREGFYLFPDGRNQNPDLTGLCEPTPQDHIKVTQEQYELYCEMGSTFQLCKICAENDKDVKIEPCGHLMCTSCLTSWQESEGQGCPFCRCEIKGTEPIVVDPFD
Summary of the method: (§1)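 Biotinylated WT CBL-B (36-427) or C-CBL (46-435) captured on streptavidin chip (~5000–6000 RU); binding at 10° C in HEPES buffer pH 7.2 with 2% DMSO. Multi-cycle: 2-fold, 10-point series from 10 or 100 μM, 90 s association. Single-cycle: 3-fold, 6-point, 0.001–1 μM, 120 s association, >5400 s dissociation.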

WT CBL-B (36-427) = target: T2, WT CBL-B (36-427) (Homo sapiens, UniProt Q13191); assay: Surface Plasmon Resonance (SPR) assay, binding affinity and kinetics, CBL-B; settings: SPR at 10° C., biotinylated WT CBL-B (36-427) on streptavidin chip; geometric mean; read-out: CBL-B SPR Kd (nM) GMean
T2 construct: N-terminal biotinylated WT CBL-B (36-427) and C-CBL (46-435) were captured on a streptavidin (SA) coated sensor chip
T2 sequence (Q13191 36-427): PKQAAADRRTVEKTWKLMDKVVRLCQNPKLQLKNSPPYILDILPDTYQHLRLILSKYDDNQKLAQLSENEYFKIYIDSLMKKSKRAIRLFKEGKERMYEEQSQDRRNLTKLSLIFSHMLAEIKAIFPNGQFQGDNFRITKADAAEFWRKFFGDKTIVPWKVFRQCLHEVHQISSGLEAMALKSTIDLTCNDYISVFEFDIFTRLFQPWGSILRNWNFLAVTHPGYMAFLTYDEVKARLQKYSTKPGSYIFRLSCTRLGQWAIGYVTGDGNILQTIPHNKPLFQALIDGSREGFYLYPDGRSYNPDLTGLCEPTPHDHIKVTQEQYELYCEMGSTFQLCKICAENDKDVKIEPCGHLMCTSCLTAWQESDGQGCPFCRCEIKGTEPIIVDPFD
Summary of the method: as §1

SMILES	Kd (C-CBL (46-435)) [nM]	Kd (WT CBL-B (36-427)) [nM]
C[C@@H](c1nc(C(F)(F)F)cc2c(-c3cccc(C4(Cc5nncn5C)COC4)c3)n[nH]c12)N1C[C@H](F)[C@@H](F)C1 (single isomer, unassigned) [Example D7]	36	2.3
C[C@@H](N[C@H]1CCC(F)(F)C1)c1nc(C(F)(F)F)cc2c(-c3cccc([C@H](c4nncn4C)C4CCC4)c3)n[nH]c12 [Example C9]	22.1	3.1
CC1CN(Cc2nc(C(F)(F)F)cc3c(-c4cccc(C5(Cc6nncn6C)COC5)c4)n[nH]c23)CCC1(F)F (single isomer, unassigned) [Example C31, 7-{[(3ξ)-4,4-difluoro-3-methylpiperidin-1-yl]methyl}-3-(3-{3-[(4-methyl-4H-1,2,4-triazol-3-yl)methyl]oxetan-3-yl}phenyl)-5-(trifluoromethyl)-1H-pyrazolo[3,4-c]pyridine]	133	4.7
C[C@H](NC1CC[C@H]1O)c1nc(C(F)(F)F)cc2c(-c3cccc([C@H](c4nncn4C)C4CCC4)c3)n[nH]c12 (single isomer, unassigned) [Example D30]	5.6	1.1
Cn1cnnc1CC1(c2cccc(-c3n[nH]c4c(CN5CCCCC5)nc(C(F)(F)F)cc34)c2)COC1 [Example C33, 3-(3-{3-[(4-methyl-4H-1,2,4-triazol-3-yl)methyl]oxetan-3-yl}phenyl)-7-[(piperidin-1-yl)methyl]-5-(trifluoromethyl)-1H-pyrazolo[3,4-c]pyridine]	107	6.8
C[C@H](c1nc(C(F)(F)F)cc2c(-c3cccc(C4(Cc5nncn5C)COC4)c3)n[nH]c12)N1CCO[C@@H](C)C1 (single isomer, unassigned) [Example D12]	46	6.6
C[C@H](N[C@H]1CCC[C@@H]1O)c1nc(C(F)(F)F)cc2c(-c3cccc([C@H](c4nncn4C)C4CCC4)c3)n[nH]c12 (single isomer, unassigned) [Example C47]	7.2	1.6
CC(C)NC(C)c1nc(C(F)(F)F)cc2c(-c3cccc([C@H](c4nncn4C)C4CCC4)c3)n[nH]c12 (single isomer, unassigned) [Example C34]	172	5.2
C[C@H](NC1CCCC1)c1nc(C(F)(F)F)cc2c(-c3cccc([C@H](c4nncn4C)C4CCC4)c3)n[nH]c12 (single isomer, unassigned) [Example C10]	189	11.5
